Reference: the supplement of paper PMC10307832

Tests used:
Assay in all cases: relative viability (nuclei count vs DMSO), 5 days (fraction); higher = more cells survive
[1] = compound: CC1=C(C(=O)N2C=CSC2=N1)CCN3CCC(=C(C4=CC=CC=C4)C5=CC=C(C=C5)F)CC3 + CC1(C)CCC(c2ccc(Cl)cc2)=C(CN2CCN(c3ccc(C(=O)NS(=O)(=O)c4ccc(N[C@H](CCN5CCOCC5)CSc5ccccc5)c(S(=O)(=O)C(F)(F)F)c4)cc3)CC2)C1 [Navitoclax] (partner 0.5 µM)
Summary of the method: (§1)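 One day after seeding in 1536-well plates, lung cancer cell lines were dosed by pin tool. Dosing was either single-drug or a fixed anchor-drug dose plus five library-drug doses (not always all listed) in √10 steps. After 5 days, nuclei were stained in one fix-and-stain step and counted on 4× images, and relative viability is the nuclei count of treated wells over that of vehicle wells, given as the median of duplicate plates.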

[2] = compound: CC1=C(C(=O)N2C=CSC2=N1)CCN3CCC(=C(C4=CC=CC=C4)C5=CC=C(C=C5)F)CC3 + CC(C)C[C@H](NC(=O)[C@H](Cc1ccccc1)NC(=O)c1cnccn1)B(O)O [Bortezomib] (partner 0.002 µM)
Summary of the method: as §1

[3] = compound: CC1=C(C(=O)N2C=CSC2=N1)CCN3CCC(=C(C4=CC=CC=C4)C5=CC=C(C=C5)F)CC3 + Cc1nc(Nc2ncc(C(=O)Nc3c(C)cccc3Cl)s2)cc(N2CCN(CCO)CC2)n1 [Dasatinib] (partner 0.075 µM)
Summary of the method: as §1

[4] = compound: CC1=C(C(=O)N2C=CSC2=N1)CCN3CCC(=C(C4=CC=CC=C4)C5=CC=C(C=C5)F)CC3 + CCNC(=O)c1noc(-c2cc(C(C)C)c(O)cc2O)c1-c1ccc(CN2CCOCC2)cc1 [Luminespib] (partner 0.01 µM)
Summary of the method: as §1

| Cell Line | relative viability ([1]; first compound 0.08 µM) | relative viability ([1]; first compound 0.253 µM) | relative viability ([1]; first compound 0.8 µM) | relative viability ([1]; first compound 2.53 µM) | relative viability ([1]; first compound 8 µM) | relative viability ([2]; first compound 0.08 µM) | relative viability ([2]; first compound 0.253 µM) | relative viability ([2]; first compound 0.8 µM) | relative viability ([2]; first compound 2.53 µM) | relative viability ([2]; first compound 8 µM) | relative viability ([3]; first compound 0.08 µM) | relative viability ([3]; first compound 0.253 µM) | relative viability ([3]; first compound 0.8 µM) | relative viability ([3]; first compound 2.53 µM) | relative viability ([3]; first compound 8 µM) | relative viability ([4]; first compound 0.08 µM) | relative viability ([4]; first compound 0.253 µM) | relative viability ([4]; first compound 0.8 µM) | relative viability ([4]; first compound 2.53 µM) | relative viability ([4]; first compound 8 µM) |
| --- | --- | --- | --- | --- | --- | --- | --- | --- | --- | --- | --- | --- | --- | --- | --- | --- | --- | --- | --- | --- |
| NCI-H2228 | 0.693 | 0.914 | 0.811 | 0.838 | 0.623 | 0.939 | 0.928 | 1.25 | 1.17 | 0.64 | 0.542 | 0.555 | 0.562 | 0.546 | 0.338 | 0.126 | 0.194 | 0.181 | 0.137 | 0.101 |
| NCI-H2347 | 0.313 | 0.739 | 0.89 | 0.663 | 0.552 | – | 1.18 | 0.957 | 1.04 | 0.895 | 0.263 | 0.31 | 0.311 | 0.48 | 0.283 | 0.367 | 0.361 | 0.353 | 0.334 | 0.547 |
| NCI-H2405 | 0.892 | 0.968 | 1.08 | 0.962 | 0.705 | 0.872 | 0.969 | 0.999 | 0.732 | 0.814 | 0.23 | 0.223 | 0.208 | 0.186 | 0.184 | 0.746 | 0.744 | 0.753 | 0.649 | 0.564 |
| NCI-H3122 | 1.11 | 1.04 | 1.03 | 1.04 | 0.965 | 1.04 | 1.04 | 0.993 | 1.14 | 1.16 | 1.02 | 0.769 | 0.781 | 1.06 | 0.524 | 0.0707 | 0.131 | 0.1 | 0.0895 | 0.0997 |
| PC-3 [JPC-3] | 0.789 | 0.657 | 0.845 | 0.921 | 0.803 | 0.811 | 0.895 | 0.969 | 1.01 | 0.642 | 0.901 | 0.702 | 1.01 | 1.14 | 0.844 | 0.802 | 0.656 | 0.66 | 0.678 | 0.585 |
